In paper doi:10.1101/2023.09.03.556088, “Protein coopted from a phage restriction system dictates orthogonal cell division plane selection in Staphylococcus aureus” (bioRxiv, 2023):

What was measured:
[1] = target: T1, PcdA (Staphylococcus aureus, UniProt A0A0H2XHA0); experiment: inorganic phosphate release (PiColorLock); format: biochemical; conditions: 50 mM Tris-HCl pH 8.0, 150 mM KCl, 5 mM MgCl2, 37 °C, 0.25-4 mM NTP, 2.5 μM protein
T1 construct: gene SAUSA300_2094; full-length, untagged; His6-SUMO fusion (pTB146, pFRL159) cleaved with Ulp1; expressed in E. coli BL21(DE3)
T1 sequence (A0A0H2XHA0 1-457): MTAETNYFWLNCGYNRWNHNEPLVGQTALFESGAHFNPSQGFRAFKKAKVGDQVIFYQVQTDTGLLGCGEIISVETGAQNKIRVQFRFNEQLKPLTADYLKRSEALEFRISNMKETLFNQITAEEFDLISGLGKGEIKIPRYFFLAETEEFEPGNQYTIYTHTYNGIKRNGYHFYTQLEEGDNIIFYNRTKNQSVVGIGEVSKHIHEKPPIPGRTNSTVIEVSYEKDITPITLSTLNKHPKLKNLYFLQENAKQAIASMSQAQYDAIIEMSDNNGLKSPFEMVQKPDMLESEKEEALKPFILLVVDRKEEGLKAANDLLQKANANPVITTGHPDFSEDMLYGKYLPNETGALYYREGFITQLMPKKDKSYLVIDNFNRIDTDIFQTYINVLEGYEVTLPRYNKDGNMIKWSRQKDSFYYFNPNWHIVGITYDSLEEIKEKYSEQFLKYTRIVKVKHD

[2] = target: the molecule itself; experiment: co-sedimentation; with 2 mM GMPCPP; 30 μM FtsZ with or without PcdA (5 μM in the legend, 10 μM in the methods); 20 mM HEPES pH 7.5, 140 mM KCl, 5 mM MgCl2; 10 min at 37 °C, then 30 min at 129,000 × g; supernatant and pellet on SDS-PAGE, Coomassie

Row | Molecule | kcat [1] | binding result [2]
1 | Nc1ncnc2c1ncn2[C@@H]1O[C@H](COP(=O)(O)OP(=O)(O)OP(=O)(O)O)[C@@H](O)[C@H]1O [ATP] | Incubation of increasing concentrations of either ATP or GTP with PcdA produced saturation curves | –
2 | Nc1nc2c(ncn2[C@@H]2O[C@H](COP(=O)(O)OP(=O)(O)OP(=O)(O)O)[C@@H](O)[C@H]2O)c(=O)[nH]1 [GTP] | Incubation of increasing concentrations of either ATP or GTP with PcdA produced saturation curves | –
3 | FtsZ (purified recombinant untagged S. aureus FtsZ) (natural protein, UniProt P0A031 1-390, looked up, FtsZ, tubulin homolog, Staphylococcus aureus; Polymerised with GMPCPP in the co-sedimentation assay, unpolymerised (no GTP) in the filter retention assay) MLEFEQGFNHLATLKVIGVGGGGNNAVNRMIDHGMNNVEFIAINTDGQALNLSKAESKIQIGEKLTRGLGAGANPEIGKKAAEESREQIEDAIQGADMVFVTSGMGGGTGTGAAPVVAKIAKEMGALTVGVVTRPFSFEGRKRQTQAAAGVEAMKAAVDTLIVIPNDRLLDIVDKSTPMMEAFKEADNVLRQGVQGISDLIAVSGEVNLDFADVKTIMSNQGSALMGIGVSSGENRAVEAAKKAISSPLLETSIVGAQGVLMNITGGESLSLFEAQEAADIVQDAADEDVNMIFGTVINPELQDEIVVTVIATGFDDKPTSHGRKSGSTGFGTSVNTSSNATSKDESFTSNSSNAQATDSVSERTHTTKEDDIPSFIRNREERRSRRTRR | – | binds
